Several values for one entry are separate records, joined by “and”; a condition that tells them apart may be missing. Equal entries are not always repeated.
Target: T1, HsERK8 (Homo sapiens, UniProt Q8TD08)
T1 construct: plasmid pGEX2T expressing the full-length hERK8 coding region; made in house; host or cells: Escherichia coli Rosetta 2 (DE3)
T1 sequence (Q8TD08 1-544): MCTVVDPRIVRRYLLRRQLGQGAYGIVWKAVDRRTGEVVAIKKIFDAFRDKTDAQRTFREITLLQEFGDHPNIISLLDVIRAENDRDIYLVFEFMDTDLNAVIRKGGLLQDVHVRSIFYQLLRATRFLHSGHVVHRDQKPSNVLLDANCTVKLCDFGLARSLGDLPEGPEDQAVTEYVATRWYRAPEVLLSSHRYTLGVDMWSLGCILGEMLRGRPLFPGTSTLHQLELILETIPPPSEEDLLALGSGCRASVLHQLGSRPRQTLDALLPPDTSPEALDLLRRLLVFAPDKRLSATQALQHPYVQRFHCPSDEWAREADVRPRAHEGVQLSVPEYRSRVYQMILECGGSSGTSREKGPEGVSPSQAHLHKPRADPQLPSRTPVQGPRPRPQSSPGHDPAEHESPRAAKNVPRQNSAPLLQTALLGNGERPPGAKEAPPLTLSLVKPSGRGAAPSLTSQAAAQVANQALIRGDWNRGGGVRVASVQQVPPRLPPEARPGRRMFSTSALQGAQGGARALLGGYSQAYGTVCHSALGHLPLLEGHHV
Test: Luciferase-based kinase inhibition assay (ATP luminescence), GST-tagged HsERK8 with MBP substrate
Assay type: biochemical
Conditions: for raw luminescence, HsERK8: sheet Kinase_glo_080924_IFPS (2), replicate wells, listed as Ida
Protocol: Escherichia coli strain Rosetta 2 (DE3) (Cat# 71397, MilliporeSigma, Burlington, MA) was transformed with the plasmid pGEX2T expressing the full-length hERK8 coding region or pGSTAg expressing the full-length TbERK8 coding region. One liter of Terrific Broth media containing 100 μg/ml Ampicillin and 30 μg/ml chloramphenicol in 2 L baffled flasks was inoculated with 25 mL from an overnight culture of Rosetta 2 strains harboring either the pGEX2T-hERK8 or pGSTAg-TbERK8 plasmid. Two baffled flasks were inoculated with each overnight strain and incubated and shaken at 175 RPM in a New Brunswick Innova 44R Incubator Shaker (Fischer Scientific, Pittsburgh, PA) at 37 °C until the cultures reached an O.D.600 of 0.94. Once the cultures in the flask reached the target O.D.600, the flasks were cooled to 4 °C in an ice water bath. The cooled cultures were induced by adding isopropyl β-D-1-thiogalactopyranoside (IPTG) to a final concentration of 0.1 mM and shaken at 16 °C for 16 hours at 175 RPM in a New Brunswick Innova 44R Incubator Shaker (Fischer Scientific, Pittsburgh, PA). On the next day, the cultures were pelleted by centrifugation at 9000 xg in a JLA 10.500 rotor (Beckman Coulter; Brea, CA), and the media was decanted. The pellet was flash-frozen in liquid nitrogen and then thawed on ice. The thawed pellet was resuspended in lysis buffer (25 mM Tris, 75 mM NaCl, 0.5% TritonX-100 and 0.5% Nonidet P-40, 1 mM phenylmethanesulfonyl fluoride, 1 mM benzamidine⋅HCl) and lysed using a microfluidizer M-110P from Microfluidics (Westwood, MA). The crude lysates were clarified by centrifugation at 140,000 xg in a 45Ti rotor (Beckman Coulter, Brea, CA) for 30 min at 4°C. The clarified lysate was loaded by gravity to a 3 mL glutathione agarose resin column (Cat# G-250–10, GOLDBIO, St. Louis, MO) formed in a 1.5 × 20 cm glass chromatography column (Cat# 7371522, Bio-Rad, Hercules, CA). The column was washed with 30 mL of PBS (pH 7.4) containing 1 mM DTT. Elution buffer (50 mM Tris buffer pH 8.0 containing 10 mM reduced glutathione and 1 mM DTT was added to the washed column), and 1 mL fractions were collected by gravity and examined by SDS-PAGE stained by Coomassie dye. Peak fractions pooled from the elution were dialyzed (4x 1:500 dilutions) in kinase buffer (30 mM Tris, pH 7.4, 10 mM MgCl2, 1 mM DTT, 5% glycerol).
We performed kinase assays in buffer K (30 mM Tris pH 7.4, 10 mM MgCl2, 1 mM DTT, 5% glycerol, 50 μM ATP, and 0.1 mg/mL BSA) at 30°C for 30 min in 30 μL reactions. GST-tagged HsERK8 and TbERK8 were tested using myelin basic protein (MBP) (Cat# 13–110, Millipore, Darmstadt, Germany) as the substrate at increasing concentrations to determine the optimal activity for the assay. ATP consumption was determined by adding equal volumes of the kinase assay reagent (Promega, Cat# V5601, Madison, WI) following the manufacturer’s protocol. Luminescence was measured using the microplate reader (SpectraMax L, Molecular Devices, Sunnyvale, CA).
These compounds were screened for kinase inhibition utilizing a luciferase-based assay. Briefly, the kinases were tested using MBP as the substrate at a 14-fold molar excess in 384-well flat-bottom white plates (BRANDTECH Scientific, Cat# 781681, Essex, CT). These compounds were tested at concentrations ranging from […] to 150 nM. The kinases plus MBP substrate reactions were incubated with each inhibitor for 30 minutes at 30°C. Equal volumes of kinase assay mix Promega (Cat# V5601, Madison, WI) were added to the kinase/inhibitor reaction after 30 minutes, following the manufacturer’s protocol. ATP luminescence was measured using a microplate reader (SpectraMax L, Molecular Devices, Sunnyvale, CA). IC50 values were calculated from assays done in triplicate by fitting the data using Prism 8.1.1 (GraphPad).

## CC(=O)[C@]1(O)Cc2c(O)c3c(c(O)c2[C@@H](O[C@H]2C[C@H](N)[C@H](O)[C@H](C)O2)C1)C(=O)c1ccccc1C3=O [Idarubicin]
0.00015 mM compound
  raw luminescence, HsERK8: 5033.01 RLU and 5464.22 RLU and 4680.41 RLU
0.00061 mM compound
  raw luminescence, HsERK8: 4929.7 RLU and 5104.88 RLU and 5152.04 RLU
0.00244 mM compound
  raw luminescence, HsERK8: 4819.65 RLU and 4756.77 RLU and 4179.58 RLU
0.00977 mM compound
  raw luminescence, HsERK8: 4606.3 RLU and 4691.64 RLU and 4170.6 RLU
0.03906 mM compound
  raw luminescence, HsERK8: 4799.44 RLU and 4835.38 RLU and 4925.21 RLU
0.15625 mM compound
  raw luminescence, HsERK8: 4702.87 RLU and 5131.83 RLU and 4550.15 RLU
0.62500 mM compound
  raw luminescence, HsERK8: 4750.03 RLU and 4873.56 RLU and 4527.69 RLU
2.50000 mM compound
  raw luminescence, HsERK8: 3723.67 RLU and 3768.58 RLU and 3368.82 RLU
10.00000 mM compound, signal = ATP left
  raw luminescence, HsERK8: 988.186 RLU and 1334.05 RLU and 1307.1 RLU
Concentrations below 4.0 x10^-5 M (above this the red compound blocked luminescence)
  inhibitory effect on kinase activity of HsERK8: no detectible (n/d) inhibitory effect
